{
  "source": "ChEMBL document CHEMBL1141148",
  "about": "“Antidiabetic activity of passive nonsteroidal glucocorticoid receptor modulators” (J Med Chem, 2005)",
  "key": {"[1]": {"molecular_target": "T1, Glucocorticoid receptor (Homo sapiens) (UniProt P04150)", "T1 sequence (whole entry)": "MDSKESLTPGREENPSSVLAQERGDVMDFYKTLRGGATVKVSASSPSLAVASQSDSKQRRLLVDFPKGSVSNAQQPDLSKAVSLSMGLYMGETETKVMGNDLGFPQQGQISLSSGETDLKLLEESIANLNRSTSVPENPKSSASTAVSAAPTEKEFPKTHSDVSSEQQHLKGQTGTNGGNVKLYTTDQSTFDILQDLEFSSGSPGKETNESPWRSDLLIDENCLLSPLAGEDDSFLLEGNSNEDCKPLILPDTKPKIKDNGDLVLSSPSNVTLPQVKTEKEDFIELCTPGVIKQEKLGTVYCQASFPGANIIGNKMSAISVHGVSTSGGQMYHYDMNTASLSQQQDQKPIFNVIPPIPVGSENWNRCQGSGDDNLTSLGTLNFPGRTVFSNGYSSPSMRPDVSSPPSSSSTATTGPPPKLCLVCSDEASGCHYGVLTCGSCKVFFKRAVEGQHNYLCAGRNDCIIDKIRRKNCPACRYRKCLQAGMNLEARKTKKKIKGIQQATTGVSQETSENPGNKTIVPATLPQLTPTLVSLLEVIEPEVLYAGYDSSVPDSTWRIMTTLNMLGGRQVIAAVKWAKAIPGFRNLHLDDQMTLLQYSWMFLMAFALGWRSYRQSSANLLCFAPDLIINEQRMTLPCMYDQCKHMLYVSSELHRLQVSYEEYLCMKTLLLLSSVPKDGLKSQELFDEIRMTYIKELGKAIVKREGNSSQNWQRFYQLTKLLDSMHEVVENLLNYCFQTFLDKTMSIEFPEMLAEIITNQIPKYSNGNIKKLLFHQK", "conditions": "Huh-7"}, "Glucocorticoid receptor [2]": {"molecular_target": "T2, Glucocorticoid receptor (Homo sapiens, UniProt P04150)", "T2 sequence (P04150 whole entry)": "T1 sequence (whole entry)", "experiment": "Antagonistic activity against 5 nM Dexamethasone induced glucocorticoid receptor mediated alkaline phosphatase activity", "type": "functional"}, "Glucocorticoid receptor [3]": {"molecular_target": "T2, Glucocorticoid receptor"}, "Progesterone receptor": {"molecular_target": "T3, Progesterone receptor (Homo sapiens, UniProt P06401)", "T3 sequence (P06401 whole entry)": "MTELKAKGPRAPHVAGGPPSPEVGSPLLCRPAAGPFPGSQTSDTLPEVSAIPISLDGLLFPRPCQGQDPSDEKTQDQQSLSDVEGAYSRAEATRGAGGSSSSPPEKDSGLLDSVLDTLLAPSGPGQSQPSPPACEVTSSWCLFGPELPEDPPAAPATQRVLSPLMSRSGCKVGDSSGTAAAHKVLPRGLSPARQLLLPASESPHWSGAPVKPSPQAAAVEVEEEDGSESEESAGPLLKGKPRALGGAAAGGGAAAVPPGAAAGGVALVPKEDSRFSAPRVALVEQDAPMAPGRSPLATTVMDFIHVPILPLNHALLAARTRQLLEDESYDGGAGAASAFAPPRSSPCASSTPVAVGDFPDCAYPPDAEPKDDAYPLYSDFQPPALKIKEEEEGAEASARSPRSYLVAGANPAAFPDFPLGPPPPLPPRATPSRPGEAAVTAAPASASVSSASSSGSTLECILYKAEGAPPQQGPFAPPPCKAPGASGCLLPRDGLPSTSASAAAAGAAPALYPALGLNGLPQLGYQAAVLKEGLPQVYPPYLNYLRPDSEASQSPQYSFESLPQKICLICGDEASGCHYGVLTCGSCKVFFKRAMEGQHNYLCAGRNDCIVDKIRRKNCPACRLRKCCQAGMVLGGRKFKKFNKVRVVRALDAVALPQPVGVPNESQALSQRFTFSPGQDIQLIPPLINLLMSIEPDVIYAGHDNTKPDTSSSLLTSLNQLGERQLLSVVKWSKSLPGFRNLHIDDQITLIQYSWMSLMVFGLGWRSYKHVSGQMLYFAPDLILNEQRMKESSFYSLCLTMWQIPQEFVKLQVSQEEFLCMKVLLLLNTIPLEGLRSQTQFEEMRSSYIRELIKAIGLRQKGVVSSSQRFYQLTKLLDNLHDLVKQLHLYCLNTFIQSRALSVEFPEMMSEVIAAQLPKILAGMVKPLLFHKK", "experiment": "Inhibition of human progesterone receptor"}, "[4]": {"experiment": "Half life period of the compound in rat hepatocytes was determined", "type": "ADME, cell-based, Liver, Hepatocyte"}, "[5]": {"experiment": "Cholesterol levels in ob/ob mice after 14 days of oral dose at 100 mpk b.i.d.", "type": "ADME", "conditions": "mouse, in vivo, 100 mg/kg, 336 h"}, "[6]": {"experiment": "Glucose levels in ob/ob mice after 14 days of oral dose at 100 mpk b.i.d.", "type": "ADME", "conditions": "mouse, in vivo, 100 mg/kg, 336 h"}, "[7]": {"experiment": "Free fatty acid (FFA) levels in ob/ob mice after 13 days of oral dose at 100 mpk b.i.d.", "type": "ADME", "conditions": "mouse, in vivo, 100 mg/kg, 312 h"}, "[8]": {"experiment": "Free fatty acid (FFA) levels in ob/ob mice after 14 days of oral dose at 100 mpk b.i.d.", "type": "ADME", "conditions": "mouse, in vivo, 100 mg/kg, 336 h"}, "[9]": {"experiment": "Insulin levels in ob/ob mice after 14 days of oral dose at 100 mpk b.i.d.", "type": "ADME", "conditions": "mouse, in vivo, 100 mg/kg, 336 h"}, "Mus musculus [10]": {"species_on_record": "Mus musculus", "experiment": "Final weight of the ob/ob mice after 13 days of oral treatment at 100 mpk b.i.d.", "type": "functional"}, "[11]": {"experiment": "Alanine aminotransferase (ALT) levels in ob/ob mice after 13 days of oral dose at 100 mpk b.i.d.", "type": "ADME", "conditions": "mouse, in vivo, 100 mg/kg, 312 h"}, "[12]": {"experiment": "Insulin levels in ob/ob mice after 13 days of oral dose at 100 mpk b.i.d.", "type": "ADME", "conditions": "mouse, in vivo, 100 mg/kg, 312 h"}, "[13]": {"experiment": "Glycogen levels in ob/ob mice after 14 days of oral dose at 100 mpk b.i.d.", "type": "ADME", "conditions": "mouse, in vivo, 100 mg/kg, 336 h"}, "[14]": {"experiment": "Liver levels in ob/ob mice after 14 days of oral dose at 100 mpk b.i.d.", "type": "ADME, tissue-based", "conditions": "mouse, in vivo, 100 mg/kg, 336 h"}, "Rattus norvegicus [15]": {"system": "Rattus norvegicus", "experiment": "Reduction of progesterone levels in pregnant rats after q.d. oral dosing at 3 mpk", "type": "functional"}, "[16]": {"experiment": "Glucose levels in ob/ob mice after 13 days of oral dose at 100 mpk b.i.d.", "type": "ADME", "conditions": "mouse, in vivo, 100 mg/kg, 312 h"}, "Rattus norvegicus [17]": {"system": "Rattus norvegicus", "experiment": "Reduction of uterine weight in pregnant rats after q.d. oral dosing at 3 mpk", "type": "functional"}, "Mus musculus [18]": {"species_on_record": "Mus musculus", "experiment": "Initial weight of the ob/ob mice before oral treatment at 100 mpk b.i.d. for 13 days", "type": "functional"}, "Mus musculus [19]": {"species_on_record": "Mus musculus", "experiment": "Initial weight of the ob/ob mice before oral treatment at 100 mpk b.i.d. for 14 days", "type": "functional"}, "[20]": {"experiment": "Half life period of the compound in rat liver microsomes was determined", "type": "ADME, Microsome"}, "[21]": {"experiment": "Aspartate aminotransferase (AST) levels in ob/ob mice after 13 days of oral dose at 100 mpk b.i.d.", "type": "ADME", "conditions": "mouse, in vivo, 100 mg/kg, 312 h"}},
  "note": "Values joined by “and” are separate entries in the source; they are usually repeats but may differ in a detail not shown here. Equal entries are not always repeated. Active and inactive are the calls of the source. The calls are words filed in the database; no cut-off is given here.",
  "data": [
    {"smiles": "Cc1c(NS(C)(=O)=O)cccc1N(Cc1ccc(Oc2ccc(Br)c(OCC(=O)O)c2)cc1)Cc1ccc(F)cc1F", "values": [
      {"measurement": "Agonistic activity", "setting": "[1]", "result": "inactive"},
      {"measurement": "IC50", "setting": "Glucocorticoid receptor [2]", "result": 330, "unit": "nM"},
      {"measurement": "IC50", "setting": "Glucocorticoid receptor [3]", "result": 1.8, "unit": "nM"},
      {"measurement": "IC50", "setting": "Progesterone receptor", "result": 140, "unit": "nM"}
    ]},
    {"smiles": "CC#C[C@]1(O)CC[C@H]2[C@@H]3CCC4=CC(=O)CCC4=C3[C@@H](c3ccc(N(C)C)cc3)C[C@@]21C", "note": "[MIFEPRISTONE]", "values": [
      {"measurement": "half-life", "setting": "[4]", "result": "< 6", "unit": "min"},
      {"measurement": "Level", "setting": "[5]", "result": 3660, "unit": "µg/mL"},
      {"measurement": "Level", "setting": "[6]", "result": 1700, "unit": "µg/mL"},
      {"measurement": "Level", "setting": "[7]", "result": 1.5, "unit": "mequiv/L"},
      {"measurement": "Level", "setting": "[8]", "result": 0.84, "unit": "mequiv/L"},
      {"measurement": "Level", "setting": "[9]", "result": 0.014, "unit": "µg/mL"},
      {"measurement": "Weight", "setting": "Mus musculus [10]", "result": "48.2 g and 51.2 g"},
      {"measurement": "Level", "setting": "[11]", "result": 1110, "unit": "units/mL"},
      {"measurement": "Level", "setting": "[12]", "result": 0.0075, "unit": "µg/mL"},
      {"measurement": "Level", "setting": "[13]", "result": 30.5, "unit": "mg/gof liver"},
      {"measurement": "Level", "setting": "[14]", "result": "1.8 nmol of pHB/min/mg of protein"},
      {"measurement": "Reduction", "setting": "Rattus norvegicus [15]", "result": 50, "unit": "%"},
      {"measurement": "Level", "setting": "[16]", "result": 1410, "unit": "µg/mL"},
      {"measurement": "Reduction", "setting": "Rattus norvegicus [17]", "result": 50, "unit": "%"},
      {"measurement": "Weight", "setting": "Mus musculus [18]", "result": 46.1, "unit": "g"},
      {"measurement": "Weight", "setting": "Mus musculus [19]", "result": 41.7, "unit": "g"},
      {"measurement": "half-life", "setting": "[20]", "result": "< 19.8", "unit": "min"},
      {"measurement": "Level", "setting": "[21]", "result": 310, "unit": "units/mL"}
    ]}
  ]
}
